In US20240246980A1, “MODULATORS OF MAS-RELATED G-PROTEIN RECEPTOR D AND RELATED PRODUCTS AND METHODS” (Escient Pharmaceuticals, Inc., priority 2022, published 2024):
pIC50: −log10 of the molar value.

Molecular target: human MRGPRD (Homo sapiens, UniProt Q8TDS7)
Assay: MRGPRD antagonist activity, IP-One HTRF assay in CHO cells stably expressing human MRGPRD (versus 100 μM β-Alanine agonist)
Assay type: cell-based
Description: Chinese Hamster Ovary (CHO) cells stably expressing human MRGPRD (Eurofins, San Diego CA) were plated in a 384-well plate at 20,000 cells per well in 12 μL of Optimem (Fisher Scientific 11-058-021). Plates were kept in the incubator at 37° C. overnight. Antagonists were solubilized at a concentration of 10 mM in DMSO, and the agonists were solubilized to stock concentrations of either 50 mM in H2O (β-Alanine) or 10 mM in DMSO (all others) and then diluted in assay buffer (final concentrations of 5.7 mM Tris-HCl, 43 mM NaCl, 50 mM LiCl, pH=8). The concentration of DMSO was normalized across the plate. Antagonists were added to the plate using a Tecan D300 Digital Dispenser at nanoliter/picoliter volumes and 2 μL of agonists in assay buffer were added to each well for a final assay volume of 14 μL. Plates were covered and incubated for 1 h at 37° C. and then for 1 h at room temperature. IP-1 standards and HTRF detection reagents were added according to an IP-One-Gq Kit purchased from Cisbio (part number 62IPAPEJ) and incubated in the dark for 1 h at room temperature. Assay plates were read on either a Molecular Devices SpectraMax iD5 plate reader or a BMG ClarioStar plate reader. The HTRF ratio was calculated form the raw data and graphed using GraphPad Prism to calculate IC50 values. Data are expressed as average IC50 values and average percent antagonism calculated as a percent of the maximum efficacy response. For these studies, the variability of the data was assessed by determining the standard error of mean (SEM).
The activity ranges are denoted as follows: “+++++” denotes antagonist activity <100 nM; “++++” denotes antagonist activity between 100 and 500 nM; “+++” denotes activity between 500 and 1000 nM; “++” denotes activity between 1000 and 3000 nM; and “+” denotes activity >3000 nM.

Chain of human MRGPRD (Q8TDS7 whole entry): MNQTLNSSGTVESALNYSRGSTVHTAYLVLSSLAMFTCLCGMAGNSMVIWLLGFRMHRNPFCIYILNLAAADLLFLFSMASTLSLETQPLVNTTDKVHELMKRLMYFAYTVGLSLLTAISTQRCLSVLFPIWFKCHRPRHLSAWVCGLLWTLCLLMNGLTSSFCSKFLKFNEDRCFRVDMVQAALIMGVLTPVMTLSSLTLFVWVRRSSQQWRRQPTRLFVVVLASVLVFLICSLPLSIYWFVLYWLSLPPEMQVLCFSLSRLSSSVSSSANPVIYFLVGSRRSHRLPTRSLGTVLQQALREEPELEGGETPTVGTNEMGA

Compared with `COc1ccc(NC(=O)N2CCC[C@H](c3nc(-c4cccc(OC)c4)c4ccccn34)C2)cc1` (stereo in doubt) [Compound 5-29], `COc1ccc(NC(=O)N2CCC[C@@H](c3nc(-c4cccc(OC)c4)c4ccccn34)C2)cc1` [Compound 1-17] is higher in pIC50: 5.52 to 6.00 for the first, greater than 7.00 for the second.

`COc1cccc(-c2nc([C@@H]3CCCN(C(=O)Nc4ccc(N5CCCC5)cc4)C3)n3ccccc23)c1` [Compound 1-1] and `COc1cccc(-c2nc([C@@H]3CCCN(C(=O)Nc4ccc(C)cc4)C3)n3ccccc23)c1` [Compound 1-18] fall in the same range of pIC50: 6.30 to 7.00 for the first, 6.30 to 7.00 for the second.

First: COc1cccc(-c2nc([C@@H]3CCCN(C(=O)Nc4ccc(N(C)C)cc4)C3)n3ccccc23)c1 [Compound 1-2, (R)—N-(4-(dimethylamino)phenyl)-3-(1-(3-methoxyphenyl)imidazo[1,5-a]pyridin-3-yl)piperidine-1-carboxamide]
Second: COc1cccc(-c2nc([C@H]3CCCN(C(=O)Nc4ccc(N(C)C)cc4)C3)n3ccccc23)c1 [Compound 1-5]
The pIC50 of the first is higher: greater than 7.00 for the first, 5.52 to 6.00 for the second. The first is the more potent here.

First: COc1cccc(-c2nc(C3CCCN(C(=O)N(C)c4ccccc4F)C3)n3ccccc23)c1 (centres unmarked) [Compound 1-3]
Second: COc1cccc(-c2nc(C3CCCN(C(=O)N(C)c4cccc(F)c4)C3)n3ccccc23)c1 (centres unmarked) [Compound 1-4]
The pIC50 of the first is lower: 5.52 to 6.00 for the first, 6.00 to 6.30 for the second.

`COc1cccc(-c2nc([C@@H]3CCCN(C(=O)Nc4ccc(N(C)C)c(F)c4)C3)n3ccccc23)c1` [Compound 1-6] and `COc1cccc(-c2nc([C@@H]3CCCN(C(=O)Nc4ccc(N(C)C)c(C)c4)C3)n3ccccc23)c1` [Compound 1-7] cannot be ordered by pIC50: greater than 7.00 for the first, greater than 7.00 for the second.

First: COc1cccc(-c2nc([C@@H]3CCCN(C(=O)Nc4ccc(N(C)C)cc4C)C3)n3ccccc23)c1 [Compound 1-8]
Second: COc1cccc(-c2nc(C3CCCN(C(=O)Nc4ccc(OC)cc4C)C3)n3ccccc23)c1 (centres unmarked) [Compound 3-12]
The pIC50 of the first is higher: greater than 7.00 for the first, 6.30 to 7.00 for the second.

Compared with `COc1cccc(NC(=O)N2CCC[C@@H](c3nc(-c4cccc(OC)c4)c4ccccn34)C2)c1` [Compound 1-9], `COc1cccc(NC(=O)N2CCCC(c3nc(-c4cccc(OC)c4)c4ccccn34)C2)c1` (centres unmarked) [Compound 3-16] is lower in pIC50: greater than 7.00 for the first, 6.30 to 7.00 for the second.

`COc1cccc(-c2nc([C@@H]3CCCN(C(=O)Nc4ccc(C)c(C)c4)C3)n3ccccc23)c1` [Compound 1-10] and `COc1cccc(-c2nc(C3CCCN(C(=O)Nc4ccc(C)c(C)c4)C3)n3ccccc23)c1` (centres unmarked) [Compound 3-23] fall in the same range of pIC50: 6.30 to 7.00 for the first, 6.30 to 7.00 for the second.

`COc1cccc(-c2nc([C@@H]3CCCN(C(=O)Nc4ccc(C)cc4F)C3)n3ccccc23)c1` [Compound 1-11] and `COc1cccc(-c2nc([C@@H]3CCCN(C(=O)Nc4cccc(C)c4)C3)n3ccccc23)c1` [Compound 1-13] fall in the same range of pIC50: 6.30 to 7.00 for the first, 6.30 to 7.00 for the second.

First: CCc1ccc(NC(=O)N2CCC[C@@H](c3nc(-c4cccc(OC)c4)c4ccccn34)C2)cc1 [Compound 1-12]
Second: CCc1ccc(NC(=O)N2CCCC(c3nc(-c4cccc(OC)c4)c4ccccn34)C2)cc1 (centres unmarked) [Compound 3-22]
The pIC50 of the first is higher: greater than 7.00 for the first, 6.30 to 7.00 for the second.

`COc1cccc(-c2nc([C@@H]3CCCN(C(=O)Nc4cccc(F)c4)C3)n3ccccc23)c1` [Compound 1-14] and `COc1cccc(-c2nc(C3CCCN(C(=O)Nc4cccc(F)c4)C3)n3ccccc23)c1` (centres unmarked) [Compound 3-3] fall in the same range of pIC50: 6.30 to 7.00 for the first, 6.30 to 7.00 for the second.

First: COc1cccc(-c2nc([C@@H]3CCCN(C(=O)Nc4ccccc4C(F)(F)F)C3)n3ccccc23)c1 [Compound 1-15]
Second: COc1cccc(-c2nc(C3CCCN(C(=O)Nc4ccccc4C)C3)n3ccccc23)c1 (centres unmarked) [Compound 3-4]
The pIC50 of the first is higher: 6.30 to 7.00 for the first, 5.52 to 6.00 for the second. The first is the more potent here.

`COc1cccc(-c2nc([C@@H]3CCCN(C(=O)Nc4cccc(C#N)c4)C3)n3ccccc23)c1` [Compound 1-16] and `COc1cccc(-c2nc(C3CCCN(C(=O)Nc4cccc(C#N)c4)C3)n3ccccc23)c1` (centres unmarked) [Compound 3-21] fall in the same range of pIC50: 6.30 to 7.00 for the first, 6.30 to 7.00 for the second.

`CCN(CC)c1ccc(NC(=O)N2CCC[C@@H](c3nc(-c4cccc(OC)c4)c4ccccn34)C2)cc1` [Compound 1-19] and `COc1cccc(-c2nc(C3CCCN(C(=O)Nc4ccc(N(C)C)cc4)C3)n3ccccc23)c1` (centres unmarked) [Compound 3-25, N-(4-(dimethylamino)phenyl)-3-(1-(3-methoxyphenyl)imidazo[1,5-a]pyridin-3-yl)piperidine-1-carboxamide] cannot be ordered by pIC50: greater than 7.00 for the first, greater than 7.00 for the second.

First: COc1cccc(-c2nc([C@@H]3CCCN(C(=O)Nc4ccc(C(=O)N(C)C)cc4)C3)n3ccccc23)c1 [Compound 1-20]
Second: COc1cccc(-c2nc([C@@H]3CCCN(C(=O)Nc4ccc(CN(C)C)cc4)C3)n3ccccc23)c1 [Compound 1-26]
The pIC50 of the first is higher: greater than 7.00 for the first, 6.30 to 7.00 for the second. The first is the more potent here.

First: COc1cccc(-c2nc([C@@H]3CCCN(C(=O)Nc4ccccc4CN(C)C)C3)n3ccccc23)c1 [Compound 1-21]
Second: CCc1ccccc1NC(=O)N1CCCC(c2nc(-c3cccc(OC)c3)c3ccccn23)C1 (centres unmarked) [Compound 3-15]
The pIC50 of the first is higher: 6.00 to 6.30 for the first, less than 5.52 for the second.

`COc1cccc(-c2nc([C@@H]3CCCN(C(=O)Nc4cccc(C(F)(F)F)c4)C3)n3ccccc23)c1` [Compound 1-22] and `COc1cccc(-c2nc([C@@H]3CCCN(C(=O)Nc4cccc(OC(F)(F)F)c4)C3)n3ccccc23)c1` [Compound 1-23] fall in the same range of pIC50: 6.00 to 6.30 for the first, 6.00 to 6.30 for the second.

Compared with `CCOc1cccc(NC(=O)N2CCC[C@@H](c3nc(-c4cccc(OC)c4)c4ccccn34)C2)c1` [Compound 1-24], `CCc1cccc(NC(=O)N2CCCC(c3nc(-c4cccc(OC)c4)c4ccccn34)C2)c1` (centres unmarked) [Compound 3-18] is lower in pIC50: greater than 7.00 for the first, less than 5.52 for the second. The first is the more potent here.

Compared with `CCOc1ccc(NC(=O)N2CCC[C@@H](c3nc(-c4cccc(OC)c4)c4ccccn34)C2)cc1` [Compound 1-25], `COc1ccc(NC(=O)N2CCCC(c3nc(-c4cccc(OC)c4)c4ccccn34)C2)cc1` (centres unmarked) [Compound 3-19] is lower in pIC50: greater than 7.00 for the first, 6.30 to 7.00 for the second. The first is the more potent here.

`COc1cccc(-c2nc([C@@H]3CCCN(C(=O)NCCCN(C)C)C3)n3ccccc23)c1` [Compound 1-27] and `COc1cccc(-c2nc([C@@H]3CCCN(C(=O)NCCN(C)C)C3)n3ccccc23)c1` [Compound 1-29] fall in the same range of pIC50: 6.00 to 6.30 for the first, 6.00 to 6.30 for the second.

Compared with `COc1cccc(-c2nc([C@@H]3CCCN(C(=O)Nc4nc(C(C)C)ns4)C3)n3ccccc23)c1` [Compound 1-28], `CNC(=O)N1CCC[C@@H](c2nc(-c3cccc(OC)c3)c3ccccn23)C1` [Compound 2-1, (R)-3-(1-(3-methoxyphenyl)imidazo[1,5-a]pyridin-3-yl)-N-methylpiperidine-1-carboxamide] is lower in pIC50: 6.30 to 7.00 for the first, less than 5.52 for the second. The first is the more potent here.

First: COc1cccc(-c2nc([C@@H]3CCCN(C(=O)Nc4ccon4)C3)n3ccccc23)c1 [Compound 1-30]
Second: CNC(=O)N1CCC[C@H](c2nc(-c3cccc(OC)c3)c3ccccn23)C1 [Compound 2-2]
The pIC50 of the first is higher: 6.30 to 7.00 for the first, less than 5.52 for the second.

`COc1cccc(-c2nc([C@@H]3CCCN(C(=O)Nc4ccc5ccccc5c4)C3)n3ccccc23)c1` [Compound 1-31] and `COc1cccc(-c2nc(C3CCCN(C(=O)Nc4ccccc4)C3)n3ccccc23)c1` (centres unmarked) [Compound 3-6] fall in the same range of pIC50: 6.30 to 7.00 for the first, 6.30 to 7.00 for the second.

First: COc1cccc(-c2nc([C@@H]3CCCN(C(=O)Nc4ccc5c(cnn5C)c4)C3)n3ccccc23)c1 [Compound 1-32]
Second: COc1cccc(-c2nc(C3CCCN(C(=O)Nc4cccc(C)c4)C3)n3ccccc23)c1 (centres unmarked) [Compound 3-2]
The pIC50 of the first is higher: greater than 7.00 for the first, 6.30 to 7.00 for the second. The first is the more potent here.

First: COc1cccc(-c2nc([C@@H]3CCCN(C(=O)Nc4noc(C)c4C)C3)n3ccccc23)c1 [Compound 1-33]
Second: CNC(=O)N1CCCC(c2nc(-c3cccc(OC)c3)c3ccccn23)C1 (centres unmarked) [Compound 3-13]
The pIC50 of the first is higher: greater than 7.00 for the first, less than 5.52 for the second.

`COc1cccc(-c2nc(C3CCCN(C(=O)Nc4ccc(F)cc4)C3)n3ccccc23)c1` (centres unmarked) [Compound 3-1] and `COc1cccc(-c2nc(C3CCCN(C(=O)Nc4ccc(C)cc4)C3)n3ccccc23)c1` (centres unmarked) [Compound 3-5] fall in the same range of pIC50: 6.30 to 7.00 for the first, 6.30 to 7.00 for the second.

Compared with `COc1cccc(-c2nc(C3CCCN(C(=O)Nc4ccccc4Cl)C3)n3ccccc23)c1` (centres unmarked) [Compound 3-7], `COc1cccc(-c2nc(C3CCCN(C(=O)Nc4ccccc4OC)C3)n3ccccc23)c1` (centres unmarked) [Compound 3-8] is higher in pIC50: 6.00 to 6.30 for the first, 6.30 to 7.00 for the second. The second is the more potent here.

Compared with `CCNC(=O)N1CCCC(c2nc(-c3cccc(OC)c3)c3ccccn23)C1` (centres unmarked) [Compound 3-9], `COc1cccc(-c2nc(C3CCCN(C(=O)NCC4CC4)C3)n3ccccc23)c1` (centres unmarked) [Compound 3-14] is lower in pIC50: 6.30 to 7.00 for the first, less than 5.52 for the second.

Compared with `COc1cccc(-c2nc(C3CCCN(C(=O)NC(C)(C)C)C3)n3ccccc23)c1` (centres unmarked) [Compound 3-10], `COc1cccc(-c2nc(C3CCCN(C(=O)NC4CC4)C3)n3ccccc23)c1` (centres unmarked) [Compound 3-11] is lower in pIC50: 6.00 to 6.30 for the first, less than 5.52 for the second.

`COc1cccc(-c2nc(C3CCCN(C(=O)Nc4cccc(Cl)c4)C3)n3ccccc23)c1` (centres unmarked) [Compound 3-17] and `COc1cccc(-c2nc(C3CCCN(C(=O)Nc4ccc(Cl)cc4)C3)n3ccccc23)c1` (centres unmarked) [Compound 3-20] fall in the same range of pIC50: 6.00 to 6.30 for the first, 6.00 to 6.30 for the second.

`COc1cccc(-c2nc(C3CCCN(C(=O)Nc4cccc(N(C)C)c4)C3)n3ccccc23)c1` (centres unmarked) [Compound 3-24] and `COc1cccc(-c2nc(C3CCCN(C(=O)Nc4cccc(OC)c4C)C3)n3ccccc23)c1` (centres unmarked) [Compound 3-26] fall in the same range of pIC50: 6.30 to 7.00 for the first, 6.30 to 7.00 for the second.
